Source: patent US8207156B2, “Substituted pyrazoline compounds, their preparation and use as medicaments” (Laboratorios Del Dr. Esteve, S.A., priority 2005, dated 2012)
Counter-ions that a name gives are not always drawn.

How the values were obtained:
[1] = target: recombinant human cannabinoid 1 receptor (CB1) (Homo sapiens, UniProt P21554); test: In vitro determination of antagonism to CB1-receptor ([35S]GTPγS binding assay, CHO cell membranes); type: biochemical; details: compound at 1 μM against agonist WIN 55,212-2 (3 nM to 3 μM); effect of Rimonabant (1 μM) defined as 100%
Experimental: Chinese hamster ovary (CHO) cells stably expressing recombinant human cannabinoid 1 receptor (CB1) were cultured in nutrient mixture Ham's F 12 supplemented with 10% heat-inactivated fetal bovine serum, 2 mM L-glutamine, 50 U/ml penicillin, 50 U/ml streptomycin and 0.5 mg/ml geneticin. In order to obtain cells, culture flasks were washed twice with phosphate buffered saline and scraped. Then, cells were collected by centrifugation (200×g, 10 min) and stored dry at −80° C. Cells were homogenized in ice-cold 20 mM HEPES, 10 mM EDTA (pH 7.5) and centrifuged at 40,000×g for 15 min at 4° C. The membrane pellet was resuspended in 20 mM HEPES, 0.1 mM EDTA (pH 7.5) and centrifuged for 15 min at 4° C. The final membrane pellet was resuspended in 20 mM HEPES, 0.1 mM EDTA (pH 7.5), and divided in aliquots and stored at −80° C. until use.
The reaction was performed in 96-well plates. Membranes (15 μg protein/well) were incubated for 60 min at 30° C. in buffer (50 mM HEPES, 100 mM KCl, 5 mM MgCl2,1 mM EDTA, 0.1% wt/vol bovine serum albumin, 5 μM GDP, saponin (10 μg/ml), 0.5 nM [^35S]GTPγS, pH 7.4) with compound at a final concentration of 1 μM in either the absence or presence of agonist WIN 55, 212-2 between 3 nM and 3 μM. The incubation was terminated by rapid filtration through Millipore Multiscreen glass fiber FB, and rinsed two-times with ice-cold assay buffer. Filter plates were dried and 30 μl of scintillation liquid was added. Radioactivity was determined using a Wallac Microbeta Trilux. Each experiment was performed at least in duplicate. A WIN 55, 212-2 dose-response experiment either alone or in the presence of Rimonabant (1 μM) was systematically performed.
The average of basal [^35S]GTPγS binding was subtracted from all binding data. In order to compare the antagonism results from one screening campaign to another one, the difference between the maximal agonist effect of WIN 55, 212-2 alone, and the maximal antagonism effect due to WIN 55, 212-2 plus Rimonabant (1 μM) was defined as 100%.

CB1 receptor = target: T1, CB1 receptor (UniProt P20272); test: In-vitro determination of affinity to CB1/CB2-receptors (radioligand [3H]-CP55940 binding); details: for Inhibition [%], 10^−7 M: compound at 10^−7 M; for Inhibition [%], 10^−8 M: compound at 10^−8 M
T1 construct: other: compound at 10^−7 M; radioligand [3H]-CP55940; other: compound at 10^−8 M
Experimental: The in-vitro determination of the affinity of the inventive substituted pyrazoline compounds to CB1/CB2-Rezeptors is carried out as described in the publication of Ruth A. Ross, Heather C. Brockie et al., “Agonist-inverse agonist characterization at CB1 and CB2 cannabinoid receptors of L-759633, L759656 and AM630”, British Journal of Pharmacology, 126, 665-672, (1999), whereby the transfected human CB1 and CB2 receptors of Receptor Biology, Inc. are used. The radioligand used for both receptors is [^3H]-CP55940. The respective parts of the description is hereby incorporated by reference and forms part of the present disclosure.
Binding affinity to CB1 receptor was evaluated according to a modification of the method described by Govaerts et al., Eur J Pharmac Sci 23, 233-243 (2004). The respective parts of the description is hereby incorporated by reference and forms part of the present disclosure.
Briefly, cerebellum from male wistar rats (250-300 g) were carefully dissected on ice and homogenates were prepared with Potter-Helveheim in a cold 50 mM Tris-HCl solution containing 5 mM MgCl2, 1 mM EDTA and 0.25 M sucrose, pH 7.4. The suspension was centrifuged at 1,000×g for 5 minutes. The supernatants were collected and centrifuged 50,000×g for 15 minutes. The resulting pellets were then resuspended in Tris-HCl buffer without sucrose, homogenized and incubated for 15 min at 37° C. in an orbital shaker bath and centrifuged again at 50,000×g for 15 min. Pellets were weighted, resuspended in Tris-HCl buffer without sucrose, homogenized with Ultraturrax at 13,500 rpm for 3×5 seconds and alicuoted in 0.9 ml volumes in Eppendorf tubes. Alicuotes were centrifuged at 20,800×g for 5 minutes, supernatants discarded and pellets were frozen at −80° C. until use. Total protein concentration was determined using the Bio-Rad Lowry method based kit. Competitive binding experiments were performed in presence of 1 nM [^3H]-CP 55,940 in siliconized glass tubes containing 100 μg protein/tube resuspended in 1 ml final volume of 50 mM Tris-HCl, 5 mM MgCl2, 1 mM EDTA, 0.5% (w/v) bovine serum albumin, pH 7.4. Compounds were present at various concentrations and the non specific binding was determined in the presence of 10 μM HU-210. After 1 hour incubation at 30° C., the suspension was rapidly filtered through 0.5% PEI pre-treated GF/B fiber filters on a 96-well harvester and washed 3 times with 3 ml ice-cold binding buffer without bovine serum albumin. Radioactivity on filters was measured with Wallac Winspectral 1414 counter by liquid scintillation in 6 ml Ecoscint H (National Diagnostics, U.K.). Assays were made in triplicates.
Binding data were analyzed by non-linear regression with the software GraphPad Prism Version 3.03.

Sequence of recombinant human cannabinoid 1 receptor (CB1) (P21554 whole entry): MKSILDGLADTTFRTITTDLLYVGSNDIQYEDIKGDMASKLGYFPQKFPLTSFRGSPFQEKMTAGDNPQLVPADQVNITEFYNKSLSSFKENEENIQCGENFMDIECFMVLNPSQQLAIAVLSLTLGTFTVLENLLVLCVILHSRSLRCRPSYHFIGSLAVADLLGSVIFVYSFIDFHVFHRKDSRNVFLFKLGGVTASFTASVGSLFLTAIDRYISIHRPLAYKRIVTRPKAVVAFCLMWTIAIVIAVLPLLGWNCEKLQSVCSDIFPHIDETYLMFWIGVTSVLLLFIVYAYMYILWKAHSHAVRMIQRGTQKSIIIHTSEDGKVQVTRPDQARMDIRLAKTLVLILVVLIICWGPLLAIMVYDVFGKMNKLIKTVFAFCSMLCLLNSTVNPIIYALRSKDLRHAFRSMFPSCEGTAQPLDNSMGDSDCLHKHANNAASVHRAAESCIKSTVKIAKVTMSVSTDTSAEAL

Antagonism [%] [1] [%]	Inhibition [%], 10^−7 M (CB1 receptor) [%]	Inhibition [%], 10^−8 M (CB1 receptor) [%]	SMILES
53	–	–	Cl.O=C(NN1CCOCC1)C1=NN(c2ccc(Cl)cc2Cl)C(c2ccc(Cl)cc2)C1 (stereo not drawn) [Example 9, 5-(4-Chloro-phenyl)-1-(2,4-dichloro-phenyl)-4,5-dihydro-1H-pyrazole-3-carboxylic acid morpholin-4-ylamide hydrochloride]
119	–	–	O=C(NN1CC2CCCC2C1)C1=NN(c2ccc(Cl)cc2Cl)C(c2ccc(Cl)cc2)C1 (stereo not drawn) [Example 10, 5-(4-Chloro-phenyl)-1-(2,4-dichloro-phenyl)-4,5-dihydro-1H-pyrazole-3-carboxylic acid (hexahydro-cyclopenta[c]pyrrol-2-yl)-amide]
65	–	–	CC1CCC(NC(=O)C2=NN(c3ccc(Cl)cc3Cl)C(c3ccc(Cl)cc3)C2)CC1 (stereo not drawn) [Example 17, 5-(4-Chloro-phenyl)-1-(2,4-dichloro-phenyl)-4,5-dihydro-1H-pyrazole-3-carboxylic acid (4-methyl-cyclohexyl)-amide]
66	–	–	O=C(C1=NN(c2ccc(Cl)cc2Cl)C(c2ccc(Cl)cc2)C1)N1CCN(C2CCCCC2)CC1 (stereo not drawn) [Example 21, [5-(4-Chloro-phenyl)-1-(2,4-dichloro-phenyl)-4,5-dihydro-1H-pyrazol-3-yl]-(4-cyclohexyl-piperazin-1-yl)-methanone]
27	–	–	O=C(NN1C(=O)c2cccc3cccc(c23)C1=O)C1=NN(c2ccc(Cl)cc2Cl)C(c2ccc(Cl)cc2)C1 (stereo not drawn) [Example 24, 5-(4-Chloro-phenyl)-1-(2,4-dichloro-phenyl)-4,5-dihydro-1H-pyrazole-3-carboxylic acid (1,3-dioxo-1H,3H-benzo[de]isoquinolin-2-yl)-amide]
7	–	–	O=C(NN1Cc2cccc3cccc(c23)C1)C1=NN(c2ccc(Cl)cc2Cl)C(c2ccc(Cl)cc2)C1 (stereo not drawn) [Example 25, 5-(4-Chloro-phenyl)-1-(2,4-dichloro-phenyl)-4,5-dihydro-1H-pyrazole-3-carboxylic acid (1H,3H-benzo[de]isoquinolin-2-yl)-amide]
52	–	–	O=C(NN1CCN(C2CCCC2)CC1)C1=NN(c2ccc(Cl)cc2Cl)C(c2ccc(Cl)cc2)C1 (stereo not drawn) [Example 26, 5-(4-Chloro-phenyl)-1-(2,4-dichloro-phenyl)-4,5-dihydro-1H-pyrazole-3-carboxylic acid (4-cyclopentyl-piperazin-1-yl)-amide]
63	–	–	O=C(NN1CCc2ccccc21)C1=NN(c2ccc(Cl)cc2Cl)C(c2ccc(Cl)cc2)C1 (stereo not drawn) [Example 28, 5-(4-Chloro-phenyl)-1-(2,4-dichloro-phenyl)-4,5-dihydro-1H-pyrazole-3-carboxylic acid (2,3-dihydro-indol-1-yl)-amide]
54	–	–	O=C(NC1CCC1)C1=NN(c2ccc(Cl)cc2Cl)C(c2ccc(Cl)cc2)C1 (stereo not drawn) [Example 30, 5-(4-Chloro-phenyl)-1-(2,4-dichloro-phenyl)-4,5-dihydro-1H-pyrazole-3-carboxylic acid cyclobutylamide]
–	9.3	4.7	O=C(O)C1=NN(c2ccc(Cl)cc2Cl)C(c2ccc(O)cc2)C1 (stereo not drawn) [Example 180, 1-(2,4-Dichloro-phenyl)-5-(4-hydroxy-phenyl)-4,5-dihydro-1H-pyrazole-3-carboxylic acid]
–	31.7	18.8	Cl.O=C(NN1CCc2ccccc21)C1=NN(c2ccc(Cl)cc2Cl)[C@H](c2ccc(Cl)cc2)C1 [Example 182, (S)-5-(4-Chloro-phenyl)-1-(2,4-dichloro-phenyl)-4,5-dihydro-1H-pyrazole-3-carboxylic acid (2,3-dihydro-indol-1-yl)-amide hydrochloride]
–	31.9	3.2	Cl.O=C(NN1CCCCCC1)C1=NN(c2ccc(Cl)cc2Cl)[C@H](c2ccc(Cl)cc2)C1 [Example 183, (S)-5-(4-Chloro-phenyl)-1-(2,4-dichloro-phenyl)-4,5-dihydro-1H-pyrazole-3-carboxylic acid azepan-1-ylamide hydrochloride]
–	24.8	5.7	O=C(NN1CC2CCCC2C1)C1=NN(c2ccc(Cl)cc2Cl)[C@H](c2ccc(Cl)cc2)C1 (stereo partly drawn) [Example 184, (S)-5-(4-Chloro-phenyl)-1-(2,4-dichloro-phenyl)-4,5-dihydro-1H-pyrazole-3-carboxylic acid (hexahydro-cyclopenta[c]pyrrol-2-yl)-amide hydrochloride]
–	34.1	−11.6	O=C(NN1CCCCCC1)C1=NN(c2ccc(Cl)cc2Cl)[C@H](c2ccc(Cl)cc2)C1 [Example 185, (S)-5-(4-Chloro-phenyl)-1-(2,4-dichloro-phenyl)-4,5-dihydro-1H-pyrazole-3-carboxylic acid azepan-1-ylamide]
–	28.1	3.2	O=C(NC1CCCCCC1)C1=NN(c2ccc(Cl)cc2Cl)[C@H](c2ccc(Cl)cc2)C1 [Example 186, (S)-5-(4-Chloro-phenyl)-1-(2,4-dichloro-phenyl)-4,5-dihydro-1H-pyrazole-3-carboxylic acid cycloheptylamide]
–	5.8	4.7	CN1CCN(C(=O)C2=NN(c3ccc(Cl)cc3Cl)C(c3ccc(Cl)cc3)C2)CC1.Cl (stereo not drawn) [Example 195, [5-(4-Chloro-phenyl)-1-(2,4-dichloro-phenyl)-4,5-dihydro-1H-pyrazole-3-yl]-(4-methyl-piperazin-1-yl)-methanone hydrochloride]

SMILES	Antagonism [%] [1] [%]	Inhibition [%], 10^−7 M (CB1 receptor) [%]	Inhibition [%], 10^−8 M (CB1 receptor) [%]
COC(C)(C)[C@@H]1CCCN1NC(=O)C1=NN(c2ccc(Cl)cc2Cl)C(c2ccc(Cl)cc2)C1 (stereo partly drawn) [Example 15, 5-(4-Chloro-phenyl)-1-(2,4-dichloro-phenyl)-4,5-dihydro-1H-pyrazole-3-carboxylic acid [2-(1-methoxy-1-methyl-ethyl)-pyrrolidin-1-yl]-amide]	6	–	–
CCCCCCNC(=O)C1=NN(c2ccc(Cl)cc2Cl)C(c2ccc(Cl)cc2)C1 (stereo not drawn) [Example 20, 5-(4-Chloro-phenyl)-1-(2,4-dichloro-phenyl)-4,5-dihydro-1H-pyrazole-3-carboxylic acid hexylamide]	61	–	–
Cl.O=C(NN1CCc2ccccc21)C1=NN(c2ccc(Cl)cc2Cl)C(c2ccc(F)cc2)C1 (stereo not drawn) [Example 179, 1-(2,4-Dichloro-phenyl)-5-(4-fluoro-phenyl)-4,5-dihydro-1H-pyrazole-3-carboxylic acid (2,3-dihydro-indol-1-yl)-amide hydrochloride]	–	33.9	11.5
